In US20250090823A1, “MICRONEEDLE PATCH FOR ENHANCING ACCUMULATION OF PROTOPORPHYRIN IX IN SOLID TUMOR AND PREPARATION METHOD THEREFOR” (SHENZHEN UNIVERSITY, priority 2022, published 2025):

Key:
[1] = tested on: subcutaneous U87MG glioblastoma; experiment: Tumor-volume inhibition after 3 repeated PDT, subcutaneous U87MG glioblastoma model; type: in vivo, mouse; conditions: 50 mg/kg CCPCA NPs, 3.4 mg/kg 5-ALA, 635 nm laser 10 min at 6, 12, 24 h, 14 days
Method: A specific characterization method is as follows: 20 U87MG model tumor mice with a tumor size of 100 mm^3 are equally divided into 4 experimental groups, namely the MN (+) group with blank microneedle and irradiated with laser, the 5-ALA i.v (+) group with tail intravenous injected with 5-ALA and irradiated with laser, the MN-5-ALA (+) group with 5-ALA microneedle delivery and irradiated with laser, the MN-CCPCA (+) group with transdermal microneedle loaded with 5-ALA and CAT using nanoparticles and irradiated with lase. The doses administered are 50 mg/kg of CCPCA NPs and 3.4 mg/kg of 5-ALA. The mice in the laser treatment group are irradiated with a laser with a wavelength of 635 nm for 10 minutes (200 mW/cm^2) at 6, 12, and 24 h, respectively. The volume of mouse tumor in each group on different days (0, 2, 4, 6, 8, 10, 12, 14) is measured by a vernier caliper.

A375 melanoma cells = experiment: PpIX accumulation (mass) generated in A375 tumor cell by different nanoparticles; type: cell-based; conditions: same concentration of 5-ALA (10.8 μg mL^−1)
From the text: The biological effects of MN-CCPCA in accumulating PpIX in a cell and an in-vivo tumor are studied.

[2] = tested on: 4T1 breast cancer subcutaneous tumor; experiment: Tumor-volume inhibition after PDT, 4T1 breast cancer subcutaneous tumor model; type: in vivo, mouse; conditions: 50 mg/kg CCPCA NPs, 3.4 mg/kg 5-ALA, 635 nm laser 10 min at 12, 24, 36 h, 14 days
From the text: A specific characterization method is as follows: 20 4T1 model tumor mice with a tumor size of 100 mm^3 are equally divided into 4 experimental groups, namely the MN (+) group with blank microneedle and irradiated with laser, the 5-ALA i.v (+) group with tail intravenous injected with 5-ALA and irradiated with laser, the MN-5-ALA (+) group with 5-ALA microneedle delivery and irradiated with laser, the MN-CCPCA (+) group with transdermal microneedle loaded with 5-ALA and CAT using nanoparticles and irradiated with lase. The mice in the laser treatment group are irradiated with a laser with a wavelength of 635 nm for 10 minutes (200 mW/cm^2) at 12, 24, and 36 h, respectively. The doses administered are 50 mg/kg of CCPCA NPs and 3.4 mg/kg of 5-ALA. The volume of mouse tumor in each group on different days (0, 2, 4, 6, 8, 10, 12, 14) is measured by a vernier caliper.

A375 tumor cell = experiment: Dynamic PpIX fluorescence in A375 tumor cell by high-content fluorescence microscopy; type: cell-based; conditions: equal amount of 5-ALA, time after hatching (incubation)
From the text: The dynamic fluorescence value of PpIX generated by an in-vivo cell is monitored in real time by high-content fluorescence microscopy.

[3] = background statement; cited from earlier work

Compound | tumor growth inhibition rate [1] [%] | intracellular PpIX content (A375 melanoma cells) [ng/10^6 cells] | tumor growth inhibition rate [2] [%] | time at which PpIX concentration/intensity in the cell reaches the maximum (A375 tumor cell) [h] | time of rapid clearance of PpIX in vivo [3] [h] | time to highest peak of PpIX synthesis in vivo [3]
NCC(=O)CCC(=O)O [5-ALA, 5-aminolevulinic acid] | 19.1 | 35.1±3.3 | 27.5 | 6 | – | –
C=CC1=C(C)c2cc3[nH]c(cc4nc(cc5[nH]c(cc1n2)c(C)c5CCC(=O)O)C(CCC(=O)O)=C4C)c(C)c3C=C [PpIX, Protoporphyrin IX] | – | – | – | – | ≤ 12 | about 4 hours
